These results are taken from patent publication US5498632A, “Esters of acyl carnitines with long-chain aliphatic alcohols and pharmaceutical compositions containing same having antibacterial activity” (Sigma-Tau Industrie Farmaceutiche Riunite S.p.A., priority 1992, dated 1996).

Series [1] concerns antibody-producer B lymphocytes (spleen of SRBC immunized mice). Put plainly: Test 1: primary antibody production (Jerne test) in spleen of SRBC immunized mice. In kind it is in vivo, mouse (male B6 D2 F1). As for the experimental part: Evaluation of the "in vitro-ex vivo" effect of repeated oral administrations of ST 722 on the primary antibody production (Jerne test) in the spleen of SRBC (Sheep Red Blood Cells) immunized mice.
Male B6 D2 F1 mice (C. River) aged 8 weeks (6 animals each group) were utilized.
The substance (ST 722) was administered per os at the dose of 100 mg/kg/day from day -2 through day +2 (immunization at day 0).
The animals were immunized by intraperitoneal route with a concentration of 1.0×10^8 cells/mouse in 0.2 ml of sterile saline.
Five days later, spleens to be submitted to teasing process were removed from the animals sacrificed by cervical dislocation.
After standardization at 1.0×10^7 cells/ml, the splenocytes (0.1 ml) were mixed with warm agar-Hank's (2 ml) and 10% SRBC in PBS (0.2 ml) and seeded in Petri dishes (samples tested in triplicates) and incubated at 37° C. for 60 min.
After addition of complement (2 ml of guinea pig serum diluted 1:10 in Tris buffer), samples were further incubated at 37° C. for 30 min.
To block the haemolysis reaction, the Petri dishes were cooled at 4° C. and the haemolysis plaques were counted.
The antibody response to SRBC is expressed as number of plaque forming cells (PFC) per 1.0×10^6 splenocytes as well as per spleen.

Another series deals with Gram+ bacterial strains. Put plainly: Mean MIC in broth and resistant strain number, Gram+ strains. In kind it is cell-based. The settings on record: 18 h, versus susceptible strains. The procedure:
Evaluation of the Minimal Inhibitory Concentration (MIC) in broth of 15 new substances for Gram+ bacterial strains.
The following strains were used: Staphylococcus aureus (4); Streptococcus faecalis (8); Bacillus pumilus (1); Bacillus subtilis (1).
MICs were determined by a standard microdilution test, using serial two-fold dilutions of the substances in Mueller-Hinton broth.
The inoculum was prepared from an overnight culture in Mueller-Hinton broth matching the 0.5 Mc Farland (turbidity) standard (BRAY W. E., Clinical Laboratory Methods, 5th Ed. C. V. MOSBY, St. Louis, Mo. 1957), and was adjusted to a final concentration of 5.0×10^4 colony-forming units/ml.
Equal volumes (0.1 ml) of both bacterial suspensions and substance solutions were distributed in microtiter plates (Falcon, 96 wells, round bottom), and then placed in a humidified incubator (37° C.) for 18 hours.
The results, in terms of MIC values, resistant strain number and mean MIC values versus susceptible strains, are illustrated in Tables 1-6.

For series [2], the system named is Streptococcus faecalis (505). Nature of the series: MIC in broth, Gram+ strains. In kind it is cell-based. The settings on record: Enterococcus faecalis; S. faecalis (505), Mueller-Hinton broth, 37° C., 18 hours; read-out: Minimal Inhibitory Concentration (MIC). An outline of the steps:
(§1)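 Minimal inhibitory concentrations come from serial two-fold dilution in Mueller-Hinton broth against 5.0×10^4 CFU/ml final inoculum, incubated humidified for 18 hours at 37° C.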

The subject of series [3] is Staphylococcus aureus (ATCC 14154). Put plainly: MIC in broth, Gram+ strains. In kind it is cell-based. The settings on record: ATCC14154, S. aureus (ATCC 14154), Mueller-Hinton broth, 37° C., 18 hours, read-out: Minimal Inhibitory Concentration (MIC). In short, it runs like this:
as §1

For series [4], the system named is Bacillus subtilis (ATCC 6051). Nature of the series: MIC in broth, Gram+ strains. The series is classed as cell-based. The note with it: ATCC6051, B. subtilis (ATCC 6051), Mueller-Hinton broth, 37° C., 18 hours, read-out: Minimal Inhibitory Concentration (MIC). In short, it runs like this: as §1
Series [5] concerns Streptococcus faecalis (516). Put plainly: MIC in broth, Gram+ strains. The series is classed as cell-based. The settings on record: Enterococcus faecalis; S. faecalis (516), Mueller-Hinton broth, 37° C., 18 hours; read-out: Minimal Inhibitory Concentration (MIC). In short, it runs like this:
as §1

The subject of series [6] is Streptococcus faecalis (509). Put plainly: MIC in broth, Gram+ strains. In kind it is cell-based. The note with it: Enterococcus faecalis; S. faecalis (509), Mueller-Hinton broth, 37° C., 18 hours; read-out: Minimal Inhibitory Concentration (MIC). In short, it runs like this: as §1
The mark [7] stands for this setting: 100 mg/kg/day per os, day -2 through day +2, mean ± S.E.

`CCCCCCCCCCCOC(=O)CC(C[N+](C)(C)C)OC(=O)CC(C)C` [ST 722, Isovaleryl-L-Carnitine Undecyl Ester Chloride]: in series [1] (100 mg/kg/day per os), the “toxic effect on weight of the lymphoid organs (spleen and thymus)” value is given as “did not show values relating to a toxic effect”. Moreover, the Body weight in series [1] (setting [7]) amounted to 25.12 g. The “PFC/10^6 cells” value in series [1] (setting [7]) is 261 ± 34 PFC/10^6 cells. Further, the PFC/spleen in series [1] (setting [7]) is 44440 PFC/spleen. This compound also returned a Spleen weight in series [1] (setting [7]) of 94.33 mg. For the same compound, the Thymus weight in series [1] (setting [7]) was 59.50 mg. Moreover, the “modification in PFC number after the antigenic challenge” value in series [1] (repeated (5 consecutive days) oral administrations) was “did not cause a statistically significant modification in PFC number”. Further, the MIC turned out to be 3.12 mg/L in the series on Gram+ bacterial strains; 3.12 mg/L in series [2]; 3.12 mg/L in series [3]; 3.12 mg/L in series [4]; 1.56 mg/L in series [5]; 3.12 mg/L in series [6].
